Test results from the CheMixHub ionic liquid set.

Assay: xn = mol fraction of the nth substance listed

CCCCCCCC[n+]1ccc(C)cc1.[Br-] + CO/N=C(\C(=O)N[C@@H]1C(=O)N2C(C(=O)[O-])=C(CSc3nc(=O)c(=O)[n-]n3C)CS[C@H]12)c1csc(N)n1.[Na+].[Na+] + O
viscosity [mPa·s], 100 kPa
Conditions	288.15 K	293.15 K	298.15 K	303.15 K	308.15 K
x2 = 0, x1 = 0.0006354	1.179	1.031	0.915	0.817	0.737
x2 = 0, x1 = 0.0009577	1.196	1.046	0.929	0.833	0.749
x2 = 0, x1 = 0.001283	1.217	1.063	0.941	0.844	0.76
x2 = 0.0003362, x1 = 0.0009574	1.244	1.089	0.97	0.867	0.781
x2 = 0.0003451, x1 = 0.001283	1.269	1.108	0.977	0.863	0.786
x2 = 0.0003509, x1 = 0.0006352	1.243	1.076	0.949	0.847	0.77
x2 = 0.0008524, x1 = 0.0006349	1.314	1.15	1.021	0.909	0.816
x2 = 0.0008642, x1 = 0.001282	1.358	1.183	1.047	0.937	0.842
x2 = 0.0008856, x1 = 0.0009569	1.333	1.169	1.039	0.929	0.828
x2 = 0.001395, x1 = 0.0006346	1.411	1.235	1.094	0.974	0.873
x2 = 0.0014, x1 = 0.0009564	1.452	1.252	1.109	0.989	0.885
x2 = 0.00141, x1 = 0.001281	1.459	1.271	1.124	1.004	0.901
x2 = 0.001941, x1 = 0.0006342	1.52	1.33	1.174	1.046	0.936
x2 = 0.001965, x1 = 0.0009558	1.543	1.351	1.194	1.064	0.953
x2 = 0.00197, x1 = 0.001281	1.576	1.374	1.209	1.084	0.97
x2 = 0.002508, x1 = 0.0006339	1.642	1.433	1.264	1.124	1.006
x2 = 0.00254, x1 = 0.0009553	1.671	1.46	1.287	1.145	1.023
x2 = 0.00255, x1 = 0.00128	1.705	1.487	1.308	1.165	1.042
x2 = 0.003119, x1 = 0.0006335	1.786	1.558	1.372	1.219	1.091
x2 = 0.003121, x1 = 0.0009547	1.817	1.587	1.397	1.239	1.108
x2 = 0.003147, x1 = 0.001279	1.858	1.622	1.427	1.267	1.133
x2 = 0.003941, x1 = 0.0006329	2.01	1.747	1.535	1.359	1.212
x2 = 0.003972, x1 = 0.0009539	2.048	1.776	1.562	1.382	1.233
x2 = 0.003997, x1 = 0.001278	2.093	1.814	1.593	1.411	1.256
x2 = 0.004812, x1 = 0.0006324	2.281	1.979	1.732	1.528	1.36
x2 = 0.004853, x1 = 0.0009531	2.331	2.019	1.768	1.557	1.385
x2 = 0.004881, x1 = 0.001277	2.385	2.057	1.804	1.588	1.409
x2 = 0.005508, x1 = 0.000632	2.52	2.189	1.911	1.681	1.492
x2 = 0.005554, x1 = 0.0009524	2.59	2.238	1.952	1.714	1.52
x2 = 0.005588, x1 = 0.001276	2.64	2.289	1.996	1.757	1.559

C[N+](C)(C)CCO.O=S(=O)([N-]S(=O)(=O)C(F)(F)F)C(F)(F)F + OCCCO
101 kPa
Conditions	viscosity [mPa·s]
313.15 K, x2 = 0.1272	47.2
313.15 K, x2 = 0.4106	30
313.15 K, x2 = 0.5712	24.9
318.15 K, x2 = 0	46.8
328.15 K, x2 = 0	33.4
333.15 K, x2 = 0.1272	23.9
333.15 K, x2 = 0.2297	20.5
333.15 K, x2 = 0.6946	11.27
338.15 K, x2 = 0.2297	17.8
338.15 K, x2 = 0.6946	9.76
338.15 K, x2 = 0.9474	8.48
343.15 K, x2 = 0.2297	15.62
348.15 K, x2 = 0	19.1
348.15 K, x2 = 0.5712	8.63
353.15 K, x2 = 0.8367	5.98

CCCCCCCCCCCCCCCC[N+](C)(C)C.[Br-] + OC1OC[C@@H](O)[C@H](O)[C@H]1O + O
viscosity [mPa·s], 100 kPa
Conditions	298.15 K	308.15 K	318.15 K
x1 = 7.21e-06, x2 = 0	0.896	0.742	0.617
x1 = 1.442e-05, x2 = 0	0.898	0.744	0.617
x1 = 2.162e-05, x2 = 0	0.9	0.745	0.617

CCCCCCCCCCCC[N+](C)(C)C.[Br-] + CCCCCCCCCCCCCCCC[n+]1ccn(C)c1.[Cl-] + O
100 kPa, frequency 0.002 MHz
Conditions	electrical conductivity [S/m]
303.15 K, x2 = 0, x1 = 0.0001836	0.105
313.15 K, x2 = 0, x1 = 0.0003475	0.207
323.15 K, x2 = 0, x1 = 0.0001544	0.129

CCCCCCCCCCCC[P+](CCCC)(CCCC)CCCC.c1c[n-]nn1 + COCCOCCOCCOCCOC
100 kPa
Conditions	viscosity [mPa·s]
278.15 K, x2 = 0.305	361
278.15 K, x2 = 0.596	73
288.15 K, x2 = 0.123	549
288.15 K, x2 = 0.395	124
293.15 K, x2 = 0.123	383
293.15 K, x2 = 0.495	59
298.15 K, x2 = 0.305	107

Cc1ncc(C[n+]2csc(CCO)c2C)c(N)n1.Cl.[Cl-] + O + CCCC[N+](CCCC)(CCCC)CCCC.O=S(=O)([O-])O
viscosity [mPa·s], 101 kPa
Conditions	x1 = 0.0003639, x3 = 0	x1 = 0.0006573, x3 = 0	x1 = 0.0009524, x3 = 0	x1 = 0.001251, x3 = 0	x1 = 0.001553, x3 = 0	x1 = 0.001856, x3 = 0
298.15 K	0.9024	0.914	0.9244	0.9372	0.9488	0.959
308.15 K	0.7301	0.7393	0.7485	0.7576	0.768	0.7772
318.15 K	0.6037	0.6116	0.6196	0.6275	0.6343	0.6413

c1ccsc1 + N#C[C-](C#N)C#N.OCC[n+]1ccccc1
101 kPa, x2 = 0
Conditions	viscosity [mPa·s]
303.15 K	0.58
333.15 K	0.42
348.15 K	0.364

CCC(=O)[O-].CC[NH+]1CCNCC1 + CCCO
101 kPa
Conditions	viscosity [mPa·s]
298.15 K, x2 = 0.4017	47.45
308.15 K, x2 = 0.3041	39.45

CC(=O)[O-].COCCn1cc[n+](C)c1 + O
100 kPa
Conditions	electrical conductivity [S/m]	viscosity [mPa·s]
293.15 K, x1 = 0.8395	0.408	54.79
293.15 K, x1 = 0.8942	0.338	58.87
303.15 K, x1 = 0.8942	0.495	32.66
308.15 K, x1 = 0.8659	0.636	25.93
318.15 K, x1 = 0.8659	0.925	17.73

C[N+]1(CCOCCOCCOCCOCC[N+]2(C)CCCC2)CCCC1.N#C[N-]C#N.N#C[N-]C#N + CC[n+]1ccn(C)c1.N#C[N-]C#N + O=S(=O)([N-]S(=O)(=O)C(F)(F)F)C(F)(F)F.[Li+]
100 kPa, x1 = 0.2352, x2 = 0.6725
Conditions	electrical conductivity [S/m]
298 K	0.37
303 K	0.435
313 K	0.646
323 K	0.941
333 K	1.2
343 K	1.51
